Data from PubChem BioAssay AID1963971 (Molecular Pharmacology Branch, DTP, NCI, 2024).

Tested on: 953936-095-R-J2-PDC spheroids with HUVEC/MSC, viability
Assay: Anticancer human tumor 953936-095-R-J2-PDC patient-derived cervical squamous cell carcinoma cell line growth inhibition [PI3K]
Details: for IC50: curve of first compound; for viability, T/C: stronger effect = lower value
How it was run: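 High-throughput combination screen: PI3K inhibitors crossed with targeted small molecules on complex spheroids of tumor cells, HUVEC and MSCs at 37 degrees C, 5% CO2. Top concentration was at or near clinical Cmax (otherwise 10 microM), with half-log decrements.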
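Further: spheroids exposed to compounds for seven days before read-out.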

SMILES: CC1(C)CCC(CN2CCN(c3ccc(C(=O)NS(=O)(=O)c4ccc(NCC5CCOCC5)c([N+](=O)[O-])c4)c(Oc4cnc5[nH]ccc5c4)c3)CC2)=C(c2ccc(Cl)cc2)C1 + COc1c(OCCCN2CCOCC2)ccc2c3n(c(=NC(=O)c4cnc(N)nc4)nc12)CCN3
- IC50 (second compound 0.00316 µM): 7150 nM
- IC50 (second compound 0.01 µM): 5430 nM
- IC50 (second compound 0.0316 µM): < 31.6 nM
- IC50 (second compound 0.1 µM): < 31.6 nM
- IC50 (second compound 0.316 µM): < 31.6 nM
- IC50 (second compound 1 µM): < 31.6 nM
- viability, T/C (second compound 0.00316 µM, first compound 0.0316 µM): 82%
- viability, T/C (second compound 0.00316 µM, first compound 0.1 µM): 84.2%
- viability, T/C (second compound 0.00316 µM, first compound 0.316 µM): 93.8%
- viability, T/C (second compound 0.00316 µM, first compound 1 µM): 96.2%
- viability, T/C (second compound 0.00316 µM, first compound 3.16 µM): 97.5%
- viability, T/C (second compound 0.00316 µM, first compound 10 µM): 33.2%
- viability, T/C (second compound 0.01 µM, first compound 0.0316 µM): 69.6%
- viability, T/C (second compound 0.01 µM, first compound 0.1 µM): 78.1%
- viability, T/C (second compound 0.01 µM, first compound 0.316 µM): 68%
- viability, T/C (second compound 0.01 µM, first compound 1 µM): 74.7%
- viability, T/C (second compound 0.01 µM, first compound 3.16 µM): 70.5%
- viability, T/C (second compound 0.01 µM, first compound 10 µM): 26.6%
- viability, T/C (second compound 0.0316 µM, first compound 0.0316 µM): 42%
- viability, T/C (second compound 0.0316 µM, first compound 0.1 µM): 50%
- viability, T/C (second compound 0.0316 µM, first compound 0.316 µM): 41.5%
- viability, T/C (second compound 0.0316 µM, first compound 1 µM): 40.1%
- viability, T/C (second compound 0.0316 µM, first compound 3.16 µM): 44.1%
- viability, T/C (second compound 0.0316 µM, first compound 10 µM): 21.6%
- viability, T/C (second compound 0.1 µM, first compound 0.0316 µM): 18.2%
- viability, T/C (second compound 0.1 µM, first compound 0.1 µM): 17.8%
- viability, T/C (second compound 0.1 µM, first compound 0.316 µM): 18.3%
- viability, T/C (second compound 0.1 µM, first compound 1 µM): 17.1%
- viability, T/C (second compound 0.1 µM, first compound 3.16 µM): 15.6%
- viability, T/C (second compound 0.1 µM, first compound 10 µM): 6.6%
- viability, T/C (second compound 0.316 µM, first compound 0.0316 µM): 6.6%
- viability, T/C (second compound 0.316 µM, first compound 0.1 µM): 7.22%
- viability, T/C (second compound 0.316 µM, first compound 0.316 µM): 7.33%
- viability, T/C (second compound 0.316 µM, first compound 1 µM): 5.61%
- viability, T/C (second compound 0.316 µM, first compound 3.16 µM): 5.63%
- viability, T/C (second compound 0.316 µM, first compound 10 µM): 3.88%
- viability, T/C (second compound 1 µM, first compound 0.0316 µM): 1.61%
- viability, T/C (second compound 1 µM, first compound 0.1 µM): 1.39%
- viability, T/C (second compound 1 µM, first compound 0.316 µM): 1.49%
- viability, T/C (second compound 1 µM, first compound 1 µM): 1.3%
- viability, T/C (second compound 1 µM, first compound 3.16 µM): 1.52%
- viability, T/C (second compound 1 µM, first compound 10 µM): 0.86%
